According to paper PMC10890502, “Prevention of Protease-Induced Degradation of Desmoplakin via Small Molecule Binding” (Journal of Personalized Medicine, 2024):
Residue numbers refer to the chain shown, from its start. Read-outs that look alike come from different tables or passages of the source.

What was measured:
Assay in all cases: biochemical
sDSP S507F = target: T1, sDSP S507F (Homo sapiens, UniProt P15924, S507F); set-up: FITC-sDSP degradation by calpain (1:20), fluorescence polarization after 60 min, per cent of calpain-only control; conditions: degradation rate of DSP S507F by calpain; read-out: % of control remaining
T1 construct: gene DSP; N-terminal fragment, residues 178-627
Procedure: (§1) Fluorescence Polarization (FP) assays were conducted in […] format using a BioTek Synergy H4 plate reader with polarization capacity (Agilent; Savage, MD, USA). All samples were run at 25 °C using PBS pH 7.4, 1 mM DTT, 10 mM CaCl2, 5% DMSO, and […] FITC- DSP178–627, with 500 μM of each drug. Trypsin, chymotrypsin, or calpain at either 1:50, 1:50, or 1:20 concentration was added directly before data collection with an average void time of 2 min. Control experiments in each plate were conducted in triplicate and consisted of DSP178–627 + DMSO + protease as a positive control and DSP178–627 + DMSO + [compound left out] + protease as a negative control. Only plates that had functional positive and negative controls were used in data analysis. Samples were excited at 485 nm, and polarization was monitored at 528 nm. Data were collected at 5 min increments for 1–3 h. […] Therefore, we next tested whether these 62 compounds also prevent wildtype and variant DSP degradation in the presence of calpain. […] (A) Normalized fluorescent polarization of WT and sDSP variants in the presence of a 1:20 ratio of calpain plus 500 μM drug, as compared to calpain alone (black) (B) Identity and chemical structure of the six best-performing compounds.

sDSP (DSP178–627) [1] = target: T2, sDSP (DSP178–627) (Homo sapiens, UniProt P15924, R451G); set-up: FITC-sDSP degradation by calpain (1:20), fluorescence polarization after 60 min, per cent of calpain-only control; conditions: degradation rate of DSP R451G by calpain; read-out: % of control remaining
T2 construct: gene DSP; N-terminal spectrin repeat/SH3 fragment, residues 178-627; pGEX-1 GST fusion cut with thrombin, E. coli BL21(DE3); fluorescein-5-maleimide label on exposed cysteines (C405, C524)
T2 sequence (P15924 178-627 R451G): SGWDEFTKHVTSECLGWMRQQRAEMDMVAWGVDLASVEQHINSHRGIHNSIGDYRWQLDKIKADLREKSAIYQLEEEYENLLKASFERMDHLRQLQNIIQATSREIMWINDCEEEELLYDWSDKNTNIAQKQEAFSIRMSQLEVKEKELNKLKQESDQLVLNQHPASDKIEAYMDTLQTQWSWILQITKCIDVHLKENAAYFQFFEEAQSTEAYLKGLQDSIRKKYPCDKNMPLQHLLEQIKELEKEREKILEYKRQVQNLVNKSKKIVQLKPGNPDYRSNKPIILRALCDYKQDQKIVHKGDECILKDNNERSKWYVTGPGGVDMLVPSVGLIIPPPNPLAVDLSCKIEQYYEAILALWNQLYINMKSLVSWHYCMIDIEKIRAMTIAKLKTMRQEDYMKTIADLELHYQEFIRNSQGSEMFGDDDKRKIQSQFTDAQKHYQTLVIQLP
Procedure: as §1

sDSP (DSP178–627) [2] = target: T3, sDSP (DSP178–627) (Homo sapiens, UniProt P15924, S442F); set-up: FITC-sDSP degradation by calpain (1:20), fluorescence polarization after 60 min, per cent of calpain-only control; conditions: degradation rate of DSP S442F by calpain; read-out: % of control remaining
T3 construct: gene DSP; N-terminal spectrin repeat/SH3 fragment, residues 178-627; pGEX-1 GST fusion cut with thrombin, E. coli BL21(DE3); fluorescein-5-maleimide label on exposed cysteines (C405, C524)
T3 sequence (P15924 178-627 S442F): T2 sequence (P15924 178-627 R451G) with S265F, G274R
Procedure: as §1

sDSP (DSP178–627) [3] = target: T4, sDSP (DSP178–627) (Homo sapiens, UniProt P15924); set-up: FITC-sDSP degradation by calpain (1:20), fluorescence polarization after 60 min, per cent of calpain-only control; conditions: degradation rate of DSP WT by calpain; read-out: % of control remaining
T4 construct: gene DSP; N-terminal spectrin repeat/SH3 fragment, residues 178-627; pGEX-1 GST fusion cut with thrombin, E. coli BL21(DE3); fluorescein-5-maleimide label on exposed cysteines (C405, C524)
T4 sequence (P15924 178-627): T2 sequence (P15924 178-627 R451G) with G274R
Procedure: as §1

sDSP (DSP178–627) [4] = target: T3, sDSP (DSP178–627); set-up: FITC-sDSP S442F degradation by trypsin (1:50), fluorescence polarization after 60 min, per cent of protease-only control; conditions: degradation rate of DSP S442F by trypsin; read-out: % of control remaining
Procedure: Fluorescence Polarization (FP) assays were conducted in […] format using a BioTek Synergy H4 plate reader with polarization capacity (Agilent; Savage, MD, USA). All samples were run at 25 °C using PBS pH 7.4, 1 mM DTT, 10 mM CaCl2, 5% DMSO, and […] FITC- DSP178–627, with 500 μM of each drug. Trypsin, chymotrypsin, or calpain at either 1:50, 1:50, or 1:20 concentration was added directly before data collection with an average void time of 2 min. Control experiments in each plate were conducted in triplicate and consisted of DSP178–627 + DMSO + protease as a positive control and DSP178–627 + DMSO + [compound left out] + protease as a negative control. Only plates that had functional positive and negative controls were used in data analysis. Samples were excited at 485 nm, and polarization was monitored at 528 nm. Data were collected at 5 min increments for 1–3 h. A mutation that partially occludes the DSP calpain cleavage site rescues DSP protein levels. We next assessed whether protease-dependent cleavage can also be blocked by small molecules. We screened 2496 FDA-approved drugs for their ability to prevent trypsin-dependent cleavage of sDSP S442F in our FP assay (Figure 3A). […] No change in fluorescence polarization after an hour is indicative of 0% protein degradation rate, as occurs in the [compound left out] positive control. […] (A) sDSP S442F degradation in the presence of trypsin plus 2496 compounds from the Cayman chemical “FDA library”. A degradation rate of 100% indicates the same desmoplakin degradation rate with and without the addition of 500 μM drug while a 0% rate indicates no degradation, as judged by fluorescent polarization values after 1 h. A trypsin-only control and a trypsin + [compound left out] control is indicated. Protection (red lines) was arbitrarily set between 33% and −10%. […] (B) Example of how the data in A was generated.

T1 sequence (P15924 whole entry S507F, the tested form may be a part): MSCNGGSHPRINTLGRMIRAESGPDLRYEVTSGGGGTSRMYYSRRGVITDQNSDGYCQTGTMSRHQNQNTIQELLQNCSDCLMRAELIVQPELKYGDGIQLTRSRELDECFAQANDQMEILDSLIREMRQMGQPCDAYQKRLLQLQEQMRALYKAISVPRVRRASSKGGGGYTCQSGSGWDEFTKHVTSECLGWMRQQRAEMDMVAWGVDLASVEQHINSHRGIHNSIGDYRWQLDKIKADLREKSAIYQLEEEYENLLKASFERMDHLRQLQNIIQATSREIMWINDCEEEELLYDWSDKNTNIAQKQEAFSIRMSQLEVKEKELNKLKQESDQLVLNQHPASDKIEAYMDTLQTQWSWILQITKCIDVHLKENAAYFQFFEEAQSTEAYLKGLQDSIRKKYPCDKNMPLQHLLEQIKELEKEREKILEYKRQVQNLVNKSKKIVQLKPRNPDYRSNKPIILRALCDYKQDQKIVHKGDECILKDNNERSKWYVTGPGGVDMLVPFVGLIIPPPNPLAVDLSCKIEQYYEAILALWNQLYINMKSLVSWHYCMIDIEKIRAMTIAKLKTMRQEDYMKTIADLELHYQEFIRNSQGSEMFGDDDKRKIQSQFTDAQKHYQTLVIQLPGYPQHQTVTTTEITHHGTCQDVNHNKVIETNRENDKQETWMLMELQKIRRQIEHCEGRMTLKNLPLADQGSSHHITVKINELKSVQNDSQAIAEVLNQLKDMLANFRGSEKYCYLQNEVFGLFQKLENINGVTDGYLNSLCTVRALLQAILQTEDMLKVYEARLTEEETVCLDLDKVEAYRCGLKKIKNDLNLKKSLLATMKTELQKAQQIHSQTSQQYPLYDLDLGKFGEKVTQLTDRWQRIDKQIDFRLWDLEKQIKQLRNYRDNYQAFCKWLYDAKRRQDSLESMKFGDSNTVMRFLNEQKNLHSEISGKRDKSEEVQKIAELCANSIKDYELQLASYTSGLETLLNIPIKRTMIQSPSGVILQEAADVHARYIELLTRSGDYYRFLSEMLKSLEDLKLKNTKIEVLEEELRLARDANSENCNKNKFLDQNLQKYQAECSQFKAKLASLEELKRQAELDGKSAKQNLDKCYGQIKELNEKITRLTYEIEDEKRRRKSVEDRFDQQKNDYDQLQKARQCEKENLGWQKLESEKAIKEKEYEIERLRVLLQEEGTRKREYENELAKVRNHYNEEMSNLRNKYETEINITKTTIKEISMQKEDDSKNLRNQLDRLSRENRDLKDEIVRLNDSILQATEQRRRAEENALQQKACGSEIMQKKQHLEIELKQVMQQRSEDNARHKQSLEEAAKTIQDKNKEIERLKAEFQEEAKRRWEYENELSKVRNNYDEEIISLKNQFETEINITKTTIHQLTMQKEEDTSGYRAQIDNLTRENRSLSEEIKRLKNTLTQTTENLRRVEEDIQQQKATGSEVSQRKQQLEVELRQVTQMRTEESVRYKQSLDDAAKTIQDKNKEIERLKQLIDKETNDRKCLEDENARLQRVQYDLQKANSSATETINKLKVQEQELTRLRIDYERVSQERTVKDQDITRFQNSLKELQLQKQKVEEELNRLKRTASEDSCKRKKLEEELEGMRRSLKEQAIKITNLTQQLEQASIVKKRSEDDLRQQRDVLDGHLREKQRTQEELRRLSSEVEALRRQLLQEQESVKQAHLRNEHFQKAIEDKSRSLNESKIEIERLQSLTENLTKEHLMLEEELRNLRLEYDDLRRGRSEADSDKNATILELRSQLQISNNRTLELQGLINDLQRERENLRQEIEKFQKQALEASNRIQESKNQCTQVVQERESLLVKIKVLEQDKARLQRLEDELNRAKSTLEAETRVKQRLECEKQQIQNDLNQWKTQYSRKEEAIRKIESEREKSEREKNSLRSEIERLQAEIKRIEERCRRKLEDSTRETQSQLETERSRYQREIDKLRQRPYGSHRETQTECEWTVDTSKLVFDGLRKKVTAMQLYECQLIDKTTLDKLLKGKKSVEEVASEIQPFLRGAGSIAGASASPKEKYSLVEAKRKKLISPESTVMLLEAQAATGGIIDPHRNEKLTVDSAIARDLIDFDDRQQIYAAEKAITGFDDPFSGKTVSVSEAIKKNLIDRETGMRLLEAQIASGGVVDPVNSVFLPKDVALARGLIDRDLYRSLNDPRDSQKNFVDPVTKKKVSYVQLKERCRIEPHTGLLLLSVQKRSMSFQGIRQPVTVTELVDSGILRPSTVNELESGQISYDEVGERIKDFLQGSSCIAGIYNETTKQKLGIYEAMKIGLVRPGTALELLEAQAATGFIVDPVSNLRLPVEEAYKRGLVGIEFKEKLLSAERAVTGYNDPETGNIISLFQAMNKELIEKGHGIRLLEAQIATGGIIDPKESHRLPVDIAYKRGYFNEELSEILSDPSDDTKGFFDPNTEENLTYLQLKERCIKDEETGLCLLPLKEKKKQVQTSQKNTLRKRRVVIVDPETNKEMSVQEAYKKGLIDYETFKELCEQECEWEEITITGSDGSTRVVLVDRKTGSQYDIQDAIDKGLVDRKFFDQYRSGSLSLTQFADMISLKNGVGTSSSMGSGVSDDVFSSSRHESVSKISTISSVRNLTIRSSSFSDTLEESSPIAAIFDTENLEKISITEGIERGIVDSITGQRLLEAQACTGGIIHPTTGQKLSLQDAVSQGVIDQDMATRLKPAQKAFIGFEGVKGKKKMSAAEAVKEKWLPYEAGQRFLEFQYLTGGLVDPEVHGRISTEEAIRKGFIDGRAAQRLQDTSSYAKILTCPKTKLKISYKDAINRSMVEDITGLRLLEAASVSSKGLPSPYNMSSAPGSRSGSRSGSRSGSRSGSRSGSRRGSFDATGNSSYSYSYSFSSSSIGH

Structure (SMILES) | remaining activity at 500 µM (sDSP S507F) | remaining activity at 500 µM (sDSP (DSP178–627) [1]) | remaining activity at 500 µM (sDSP (DSP178–627) [2]) | remaining activity at 500 µM (sDSP (DSP178–627) [3]) | remaining activity at 500 µM (sDSP (DSP178–627) [4])
CCCCCCCCc1ccc(CCC(N)(CO)CO)cc1 [Fingolimod] | 32% | -13% | 70% | 35% | -1%
CC(C)=CCC/C(C)=C/CC/C(C)=C/CSc1ccccc1C(=O)O [salirasib] | 26% | -5% | 29% | 32% | -8%
CCCCCCCCCCCCCCCC(=O)NCCO [palmitoylethanolamide] | 3% | 8% | -3% | 22% | 26%
C=C(c1ccc(C(=O)O)cc1)c1cc2c(cc1C)C(C)(C)CCC2(C)C [Bexarotene] | 4% | 39% | 84% | 81% | 26%
CCCCCCCCCCCCOS(=O)(=O)O [SDS] | -30% | -20% | 21% | 24% | 18%
CC(=O)O[C@H]1C(=O)[C@@]2(C)[C@H]([C@H](OC(=O)c3ccccc3)[C@]3(O)C[C@H](OC(=O)[C@H](O)[C@@H](NC(=O)c4ccccc4)c4ccccc4)C(C)=C1C3(C)C)[C@]1(OC(C)=O)CO[C@@H]1C[C@@H]2O [Taxol] | 34% | 38% | 87% | 48% | 31%
CNC(=O)c1c(F)cccc1Nc1nc(Nc2cc3c(cc2OC)CCN3C(=O)CN(C)C)nc2[nH]ccc12 [GSK1838705A] | 24% | 34% | 23% | 35% | 32%
O=C(NC1CCN(CCCCC2(C(=O)NCC(F)(F)F)c3ccccc3-c3ccccc32)CC1)c1ccccc1-c1ccc(C(F)(F)F)cc1 [Lomitapide] | 4% | 40% | 62% | 118% | 32%
CCN(CC)CC#CCOC(=O)C(O)(c1ccccc1)C1CCCCC1 (stereo not drawn) [Oxybutynin chloride] | 77% | 31% | -5% | 91% | 24%
